# Laboratory results taken from the supplement of paper PMC11003180.
# Columns and labels:
# Test in all cases: drug sensitivity score (DSS) from 5-dose viability curve (DSS (area-based score, 0 = no response)); higher = more sensitive (stronger viability inhibition); extreme values may be limits of the assay
# [1] = system: MDCK wild-type - doxycycline; details: doxycycline: none; 72 h
# Procedure, shortened: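 For 72 h at 37 °C, parental MDCK cells (no doxycycline, 2000 cells/well) were incubated on 384-well plates pre-spotted with 528 oncology drugs at five doses from 1 to 10,000 nM. CellTiter-Glo luminescence served as the viability readout, scaled per plate between vehicle and positive controls. The Breeze pipeline then fitted dose-response curves to yield drug sensitivity scores.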
# [2] = system: MDCK p60AmotL2-inducible + doxycycline (p60AmotL2 expressing); details: doxycycline: 10 ng/mL; 72 h
# Procedure, shortened: (§1)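 Parental MDCK cells and MDCK cells with a doxycycline-inducible transgene were both grown with doxycycline at 10 ng/mL in the medium before plating, then dispensed at 2000 cells/well into 384-well plates pre-spotted with an oncology library of 528 drugs at five doses (1-10,000 nM). After 72 h at 37 °C, CellTiter-Glo luminescence was recorded and scaled on each plate between vehicle and positive controls. This scaled signal served as the viability readout, and drug sensitivity scores were derived from dose-response curve fits in the Breeze pipeline.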
# [3] = system: MDCK wild-type + doxycycline; details: doxycycline: 10 ng/mL; 72 h
# Procedure, shortened: as §1
SMILES,drug sensitivity score [1],drug sensitivity score [2],drug sensitivity score [3]
CCn1c(C(=O)N(C2CC2)C2CC2)cc2c3c(ncn3C)c(Nc3cc(C)n(C)n3)nc21,0,0,0
CN1CCN(C2CCC(n3cc(-c4ccc(Oc5ccccc5)cc4)c4c(N)ncnc43)CC2)CC1 (stereo not given),7,14,9.4
O=c1[nH]c(C2CCCN2)nc2c1oc1ccc(Cl)cc12 (stereo not given),0,0,0
COc1ccc(C[C@H](NC(=O)[C@H](C)NC(=O)CN2CCOCC2)C(=O)N[C@@H](Cc2ccccc2)C(=O)C2(C)CO2)cc1 (stereo in doubt) [ONX-0914],8.6,12.5,10.4
Cn1cc(C[C@@H](N)C(=O)O)c2ccccc21 [1-methyl-D-tryptophan],0,0,0
CC/C(=C(\c1ccc(O)cc1)c1ccc(OCCN(C)C)cc1)c1ccccc1 [4-hydroxytamoxifen],1.2,5.7,4.3
Nc1ncnc2c1nc(N)n2[C@@H]1O[C@H](CO)[C@@H](O)[C@H]1O [8-amino-adenosine],18.2,19.8,18.2
Nc1ncnc2c1nc(Cl)n2[C@@H]1O[C@H](CO)[C@@H](O)[C@H]1O [8-chloro-adenosine],6.7,13.6,8.3
COc1cc2c(cc1OCCCN1CCCC1)N=C(N)C21CCC1 [A-366],0,0,0
COc1ccc(S(=O)(=O)Nc2cccnc2Nc2ccc(O)cc2)cc1 [ABT-751],15.3,16,16.6
C[C@H](Nc1ncnc2[nH]cnc12)c1cc2ccc(F)cc2nc1-c1ccccn1 [AMG319],0,0,0
CC(C)[C@@H](CS(=O)(=O)C(C)C)N1C(=O)[C@@](C)(CC(=O)O)C[C@H](c2cccc(Cl)c2)[C@H]1c1ccc(Cl)cc1 [AMG-232],5.9,9.8,7.2
COCCOc1cnc2ccn([C@H](C)c3nnc4c(F)cc(-c5cnn(C)c5)cn34)c(=O)c2c1 [AMG-337],0,0,0
CC1CCC(n2c3cnccc3c3cnc(Nc4ccc5c(n4)CCN(C(=O)CO)C5)nc32)CC1 (stereo not given) [AMG-925],0,1.3,0
COCC1(CO)C(=O)C2CCN1CC2 (stereo not given) [APR-246],0,0,0
CC(C)[C@H](C(=O)Nc1ccc(C(=O)NO)cc1)c1ccccc1 [AR-42],10.4,14,12.4
Cc1sc2c(c1C)C(c1ccc(Cl)cc1)=N[C@@H](CC(=O)Nc1ccc(OCCOCCOCCOCCNc3cccc4c3C(=O)N(C3CCC(=O)NC3=O)C4=O)cc1)c1nnc(C)n1-2 (stereo not given in full) [ARV-825],5.5,11.2,7.3
COc1cc(N2CCC(N3CCN(C)CC3)CC2)ccc1Nc1ncnc(Nc2ccccc2S(=O)(=O)C(C)C)n1 [ASP3026],6.3,9.5,6.5
O=C(NC1CCNCC1)c1n[nH]cc1NC(=O)c1c(Cl)cccc1Cl [AT7519],8.2,9.1,8.9
O=C(Nc1c[nH]nc1-c1nc2ccc(CN3CCOCC3)cc2[nH]1)NC1CC1 [AT9283],0,6.5,2
